Assay results taken from patent publication US12091409B2, “Ether linked triazoles as NRF2 activators” (ASTEX THERAPEUTICS LIMITED, priority 2016, dated 2024).

The compounds below were run on NQO1 specific enzyme activity in BEAS-2B cells (marker for NRF2 activation) (assay: BEAS-2B NQO1 MTT Assay). Conditions: Homo sapiens, BEAS-2B, 48 h, NQO1 specific activity induction, 48 hours with compound.
Assay type: cell-based
Description: NAD(P)H:quinone oxidoreductase 1 (NQO1), also called DT diaphorase, is a homodimeric FAD-containing enzyme that catalyzes obligatory NAD(P)H-dependent two-electron reductions of quinones and protects cells against the toxic and neoplastic effects of free radicals and reactive oxygen species arising from one-electron reductions. The transcription of NQO1 is finely regulated by NRF2, and thus NQO1 activity is a good marker for NRF2 activation. On day one, frozen BEAS-2B cells (ATCC) were thawed in a water bath, counted, and re-suspended at a concentration of 250,000 cells/mL. Fifty microliters of cells were plated in 384 well black clear-bottomed plates. Plates were incubated at 37° C., 5% CO2 overnight. On day two, plates were centrifuged and 50 nL of compound or controls were added to the cells. Plates were then incubated at 37° C., 5% CO2 for 48 hours. On day four, medium was aspirated from the plate and crude cell lysates were made by adding 13 uL of 1× Cell Signaling Technologies lysis buffer with 1 Complete, Mini, EDTA-free Protease Inhibitor Tablet (Roche) for each 10 mL of lysis buffer. After lysis plates were incubated for 20 minutes at room temperature. Two microliters of lysate were removed for use in Cell Titer Glo assay (Promega) and MTT cocktail was prepared (Prochaska et. al. 1998) for measurement of NQO1 activity. Fifty microliters of MTT cocktail was added to each well, plate was centrifuged, and analyzed on an Envision plate reader (Perkin Elmer) using Absorbance 570 nm label for 30 minutes. Product formation was measured kinetically and the pEC50 of NQO1 specific activity induction was calculated by plotting the change in absorbance (Delta OD/min) versus the log of compound concentration followed by 3-parameter fitting.
pEC50 is the negative log of the EC50.
EC50s<1 nM (+++++), EC50s 1 nM-10 nM (++++), EC50s 10 nM-100 nM (+++), EC50s 100 nM-1 uM (++), EC50s 1 uM-10 uM (+); EC50s>10 uM (−), or were not determined (ND).

First: Cc1ccc([C@H](OCc2cn(Cc3ccc(Cn4cc(CO[C@@H](c5ccc(C)c(CN6C[C@@H](C)Oc7ccccc7S6(=O)=O)c5)C(C)(C)C(=O)O)nn4)cc3)nn2)C(C)(C)C(=O)O)cc1CN1C[C@@H](C)Oc2ccccc2S1(=O)=O (relative stereo) [Example 46, (R,rel-(3S,3'S))-3,3′-(((1,1′-(1,4-phenylenebis(methylene))bis(1H-1,2,3-triazole-4,1-diyl))bis(methylene))bis(oxy))bis(2,2-dimethyl-3-(4-methyl-3-(((R)-4-methyl-1,1-dioxido-3,4-dihydro-2H-benzo[b][1,4,5]oxathiazepin-2-yl)methyl)phenyl)propanoic acid)]
Second: Cc1ccc([C@@H](OCc2cn(Cc3ccc(Cn4cc(CO[C@H](c5ccc(C)c(CN6C[C@@H](C)Oc7ccccc7S6(=O)=O)c5)C(C)(C)C(=O)O)nn4)cc3)nn2)C(C)(C)C(=O)O)cc1CN1C[C@@H](C)Oc2ccccc2S1(=O)=O (relative stereo) [Example 49, (R,rel-(3R,3′R))-3,3′-(((1,1′-(1,4-phenylenebis(methylene))bis(1H-1,2,3-triazole-4,1-diyl))bis(methylene))bis(oxy))bis(2,2-dimethyl-3-(4-methyl-3-(((R)-4-methyl-1,1-dioxido-3,4-dihydro-2H-benzo[b][1,4,5]oxathiazepin-2-yl)methyl)phenyl)propanoic acid)]
The EC50 of the first is lower: 10 to 100 nM for the first, 100 to 1000 nM for the second. The first is the more potent here.

First: Cc1ccc([C@H](OCc2cn(CCOCCn3cc(CO[C@@H](c4ccc(C)c(CN5C[C@@H](C)Oc6ccccc6S5(=O)=O)c4)C(C)(C)C(=O)O)nn3)nn2)C(C)(C)C(=O)O)cc1CN1C[C@@H](C)Oc2ccccc2S1(=O)=O (relative stereo) [Example 50, (R,rel-3S, rel-3′S)-3,3′-(((1,1′-(oxybis(ethane-2,1-diyl))bis(1H-1,2,3-triazole-4,1-diyl))bis(methylene))bis(oxy))bis(2,2-dimethyl-3-(4-methyl-3-(((R)-4-methyl-1,1-dioxido-3,4-dihydro-2H-benzo[b][1,4,5]oxathiazepin-2-yl)methyl)phenyl)propanoic acid)]
Second: Cc1ccc([C@@H](OCc2cn(CCOCCn3cc(CO[C@H](c4ccc(C)c(CN5C[C@@H](C)Oc6ccccc6S5(=O)=O)c4)C(C)(C)C(=O)O)nn3)nn2)C(C)(C)C(=O)O)cc1CN1C[C@@H](C)Oc2ccccc2S1(=O)=O (relative stereo) [Example 51, (R,rel-3R, rel-3′R)-3,3′-(((1,1′-(oxybis(ethane-2,1-diyl))bis(1H-1,2,3-triazole-4,1-diyl))bis(methylene))bis(oxy))bis(2,2-dimethyl-3-(4-methyl-3-(((R)-4-methyl-1,1-dioxido-3,4-dihydro-2H-benzo[b][1,4,5]oxathiazepin-2-yl)methyl)phenyl)propanoic acid)]
The EC50 of the first is lower: 10 to 100 nM for the first, 1000 to 10000 nM for the second.

Compared with `Cc1ccc(C(OCc2cn(CCOCCN=[N+]=[N-])nn2)C(C)(C)C(=O)O)cc1CN1C[C@@H](C)Oc2ccccc2S1(=O)=O` (single isomer, unassigned) [Example 14], `Cc1ccc([C@@H](OCc2cn(CCOCCN=[N+]=[N-])nn2)C(C)(C)C(=O)O)cc1CN1C[C@@H](C)Oc2ccccc2S1(=O)=O` (single isomer, unassigned) [Example 15] is higher in EC50: 1 to 10 nM for the first, 10 to 100 nM for the second.

First: Cc1ccc(C(OCc2cn(CC3CC[N+]4(CCOCC4)CC3)nn2)C(C)(C)C(=O)O)cc1CN1CC(C)Oc2ccccc2S1(=O)=O (stereo in doubt) [Example 56, 3-((1-(3-Oxa-6-azaspiro[5.5]undecan-6-ium-9-ylmethyl)-1H-1,2,3-triazol-4-yl)methoxy)-2,2-dimethyl-3-(4-methyl-3-(((S)-4-methyl-1,1-dioxido-3,4-dihydro-2H-benzo[b][1,4,5]oxathiazepin-2-yl)methyl)phenyl)propanoate]
Second: CCCn1cc(COC(c2ccc(C)c(CN3C[C@@H](C)Oc4ccccc4S3(=O)=O)c2)C(C)(C)C(=O)O)nn1 (stereo partly drawn) [Example 8, 2,2-Dimethyl-3-(4-methyl-3-(((R)-4-methyl-1,1-dioxido-3,4-dihydro-2H-benzo[b][1,4,5]oxathiazepin-2-yl)methyl)phenyl)-3-((1-propyl-1H-1,2,3-triazol-4-yl)methoxy)propanoic acid]
The EC50 of the first is higher: 1000 to 10000 nM for the first, 1 to 10 nM for the second. The second is the more potent here.

First: CCn1cc(CO[C@@H](c2ccc(C)c(CN3CC(C)Cc4ccncc4S3(=O)=O)c2)C(C)(C)C(=O)O)nn1 (stereo in doubt) [Example 73, (3S)-((1-ethyl-1H-1,2,3-triazol-4-yl)methoxy)-2,2-dimethyl-3-(4-methyl-3-(((R)-4-methyl-1,1-dioxido-4,5-dihydropyrido[4,3-f][1,2]thiazepin-2(3H)-yl)methyl)phenyl)propanoic acid]
Second: CC[C@@H]1CN(Cc2cc([C@@H](OCc3cn(CC)nn3)C(C)(C)C(=O)O)ccc2C)S(=O)(=O)c2ccccc2O1 [Example 5, (R)-3-(3-(((R)-4-ethyl-1,1-dioxido-3,4-dihydro-2H-benzo[b][1,4,5]oxathiazepin-2-yl)methyl)-4-methylphenyl)-3-((1-ethyl-1H-1,2,3-triazol-4-yl)methoxy)-2,2-dimethylpropanoic acid]
The EC50 of the first is higher: 10 to 100 nM for the first, under 1 nM for the second.

`Cc1ccc(C(OCc2cn(Cc3cccc(Br)c3)nn2)C(C)(C)C(=O)O)cc1CN1C[C@@H](C)Oc2ccccc2S1(=O)=O` (stereo partly drawn) [Example 1, 3-((1-(3-Bromobenzyl)-1H-1,2,3-triazol-4-yl)methoxy)-2,2-dimethyl-3-(4-methyl-3-(((R)-4-methyl-1,1-dioxido-3,4-dihydro-2H-benzo[b][1,4,5]oxathiazepin-2-yl)methyl)phenyl)propanoic acid] and `Cc1ccc(C(OCc2cn(Cc3cccc(CN=[N+]=[N-])c3)nn2)C(C)(C)C(=O)O)cc1CN1C[C@@H](C)Oc2ccccc2S1(=O)=O` (stereo partly drawn) [Example 3, 3-((1-(3-(Azidomethyl)benzyl)-1H-1,2,3-triazol-4-yl)methoxy)-2,2-dimethyl-3-(4-methyl-3-(((R)-4-methyl-1,1-dioxido-3,4-dihydro-2H-benzo[b][1,4,5]oxathiazepin-2-yl)methyl)phenyl)propanoic acid] cannot be ordered by EC50: under 1 nM for the first, under 1 nM for the second.

Compared with `C#CCOC(c1ccc(C)c(CN2C[C@@H](C)Oc3ccccc3S2(=O)=O)c1)C(C)(C)C(=O)O` (stereo partly drawn) [Example 2, 2,2-Dimethyl-3-(4-methyl-3-(((R)-4-methyl-1,1-dioxido-3,4-dihydro-2H-benzo[b][1,4,5]oxathiazepin-2-yl)methyl)phenyl)-3-(prop-2-yn-1-yloxy)propanoic acid], `CC[C@@H]1CN(Cc2cc([C@H](OCc3cn(CC)nn3)C(C)(C)C(=O)O)ccc2C)S(=O)(=O)c2ccccc2O1` [Example 6, (S)-3-(3-(((R)-4-ethyl-1,1-dioxido-3,4-dihydro-2H-benzo[b][1,4,5]oxathiazepin-2-yl)methyl)-4-methylphenyl)-3-((1-ethyl-1H-1,2,3-triazol-4-yl)methoxy)-2,2-dimethylpropanoic acid] is lower in EC50: 100 to 1000 nM for the first, 1 to 10 nM for the second. The second is the more potent here.

First: CCCn1cc(COC(c2ccc(C)c(CN3C[C@@H](CC)Oc4ccccc4S3(=O)=O)c2)C(C)(C)C(=O)O)nn1 (stereo partly drawn) [Example 4, 3-(3-(((R)-4-ethyl-1,1-dioxido-3,4-dihydro-2H-benzo[b][1,4,5]oxathiazepin-2-yl)methyl)-4-methylphenyl)-2,2-dimethyl-3-((1-propyl-1H-1,2,3-triazol-4-yl)methoxy)propanoic acid]
Second: CCCn1cc(COC(c2ccc(C)c(CN3CC(C)(C)Oc4ccccc4S3(=O)=O)c2)C(C)(C)C(=O)O)nn1 (stereo not drawn) [Example 9, 3-(3-((4,4-Dimethyl-1,1-dioxido-3,4-dihydo-2H-benzo[b][1,4]oxathiazepin-2-yl)methyl)-4-methylphenyl)-2,2-dimethyl-3-((1-propyl-1H-1,2,3-triazol-4-yl)methoxy)-propanoic acid]
The EC50 of the first is lower: under 1 nM for the first, 1 to 10 nM for the second.

`CC[C@@H]1CN(Cc2cc(C(OCc3cn(Cc4ccccc4)nn3)C(C)(C)C(=O)O)ccc2C)S(=O)(=O)c2ccccc2O1` (stereo partly drawn) [Example 7, 3-((1-Benzyl-1H-1,2,3-triazol-4-yl)methoxy)-3-(3-(((R)-4-ethyl-1,1-dioxido-3,4-dihydro-2H-benzo[b][1,4,5]oxathiazepin-2-yl)methyl)-4-methylphenyl)-2,2-dimethylpropanoic acid] gave an EC50 of under 1 nM.

Same assay, conditions: NQO1 specific activity induction, 48 hours with compound

First: Cc1ccc(C(OCc2cn(CC(C)C)nn2)C(C)(C)C(=O)O)cc1CN1C[C@@H](C)Oc2ccccc2S1(=O)=O (single isomer, unassigned) [Example 13]
Second: Cc1ccc(C(OCc2cn(C3COC3)nn2)C(C)(C)C(=O)O)cc1CN1C[C@@H](C)Cc2ccncc2S1(=O)=O (single isomer, unassigned) [Example 102]
The EC50 of the first is lower: 1 to 10 nM for the first, 10 to 100 nM for the second.

First: Cc1ccc(C(OCc2cn(CC(C)C)nn2)C(C)(C)C(=O)O)cc1CN1C[C@@H](C)Oc2ccccc2S1(=O)=O (single isomer, unassigned) [Example 16]
Second: Cc1ccc(C(OCc2cn(C3COC3)nn2)C(C)(C)C(=O)O)cc1CN1C[C@@H](C)Cc2ccncc2S1(=O)=O (single isomer, unassigned) [Example 103]
The EC50 of the first is higher: 10 to 100 nM for the first, 1 to 10 nM for the second.
